Results: ChEMBL document CHEMBL4334516, “Kinase Chemodiversity from the Arctic: The Breitfussins” (J Med Chem, 2019)

Tests used:
[1] = molecular target: T1, Serine/threonine-protein kinase pim-3 (Homo sapiens, UniProt Q86V86); experiment: Inhibition of PIM3 (unknown origin) assessed as residual enzyme activity at 1 uM by [33P]-ATP filter binding kinase assay relative to control
Aurora kinase B = Aurora kinase B (Homo sapiens, UniProt Q96GD4); experiment: Binding affinity to wild-type human partial length AURKB (D25 to A303 residues) expressed in mammalian expression system assessed as residual binding level at 10 uM by active-site directed competition binding assay based Kinomescan method relative to control
Aurora kinase B, sequence (Q96GD4 whole entry, the tested form may be a part): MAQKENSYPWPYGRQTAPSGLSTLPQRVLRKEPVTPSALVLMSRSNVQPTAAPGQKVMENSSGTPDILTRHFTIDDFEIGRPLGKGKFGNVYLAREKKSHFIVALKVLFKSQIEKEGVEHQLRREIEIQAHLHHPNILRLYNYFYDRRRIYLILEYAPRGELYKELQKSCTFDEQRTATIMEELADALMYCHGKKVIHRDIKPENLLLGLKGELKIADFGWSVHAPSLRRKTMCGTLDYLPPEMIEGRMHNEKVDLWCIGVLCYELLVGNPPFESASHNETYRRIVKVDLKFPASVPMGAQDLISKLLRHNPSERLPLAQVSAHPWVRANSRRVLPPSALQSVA

[2] = molecular target: T2, Mitogen-activated protein kinase kinase kinase 9 (Homo sapiens, UniProt P80192); experiment: Binding affinity to wild-type human partial length MLK1 (V88 to W426 residues) expressed in bacterial expression system assessed as residual binding level at 10 uM by active-site directed competition binding assay based Kinomescan method relative to control
Target sequence in this assay (P80192 whole entry, looked up, the tested form may be a part): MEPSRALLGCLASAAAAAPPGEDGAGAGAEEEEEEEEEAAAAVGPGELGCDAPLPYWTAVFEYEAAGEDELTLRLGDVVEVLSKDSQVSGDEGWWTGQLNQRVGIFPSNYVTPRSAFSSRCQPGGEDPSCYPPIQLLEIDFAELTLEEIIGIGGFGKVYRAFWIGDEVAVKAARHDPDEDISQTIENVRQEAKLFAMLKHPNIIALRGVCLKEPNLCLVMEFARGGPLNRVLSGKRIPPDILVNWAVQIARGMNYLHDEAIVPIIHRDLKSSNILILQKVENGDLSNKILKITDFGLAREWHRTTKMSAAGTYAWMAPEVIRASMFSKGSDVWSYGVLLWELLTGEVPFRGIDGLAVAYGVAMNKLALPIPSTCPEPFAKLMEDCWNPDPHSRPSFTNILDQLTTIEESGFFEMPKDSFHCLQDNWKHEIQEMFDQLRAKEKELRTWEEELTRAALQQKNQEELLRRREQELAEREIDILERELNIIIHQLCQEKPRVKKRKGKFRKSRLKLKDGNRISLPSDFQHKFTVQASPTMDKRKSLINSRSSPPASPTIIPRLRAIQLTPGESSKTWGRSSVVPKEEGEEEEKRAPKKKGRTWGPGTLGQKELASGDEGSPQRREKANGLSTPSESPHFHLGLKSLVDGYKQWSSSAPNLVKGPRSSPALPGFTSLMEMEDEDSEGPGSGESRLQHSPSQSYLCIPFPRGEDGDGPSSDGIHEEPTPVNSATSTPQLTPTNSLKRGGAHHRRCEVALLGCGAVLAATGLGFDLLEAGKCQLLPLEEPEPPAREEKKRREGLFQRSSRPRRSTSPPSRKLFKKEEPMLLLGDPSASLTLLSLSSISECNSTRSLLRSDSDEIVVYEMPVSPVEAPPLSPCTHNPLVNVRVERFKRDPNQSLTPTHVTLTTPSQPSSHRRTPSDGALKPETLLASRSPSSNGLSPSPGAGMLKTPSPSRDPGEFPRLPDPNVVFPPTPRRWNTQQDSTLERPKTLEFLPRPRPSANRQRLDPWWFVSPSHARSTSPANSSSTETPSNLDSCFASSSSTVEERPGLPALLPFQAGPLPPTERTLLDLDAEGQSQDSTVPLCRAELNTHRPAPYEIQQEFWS

HT-29 = experiment: Cytotoxicity in human HT-29 cells assessed as reduction in cell viability incubated for 72 hrs by MTS assay; format: functional, cell-based; conditions: HT-29, 72 h
[3] = molecular target: T1, Serine/threonine-protein kinase pim-3; experiment: Inhibition of PIM3 (unknown origin) by [33P]-ATP filter binding kinase assay
MOLT-4 = experiment: Cytotoxicity in human MOLT4 cells assessed as reduction in cell viability incubated for 72 hrs by MTS assay; format: functional, cell-based; conditions: MOLT-4, 72 h
MRC5 = experiment: Cytotoxicity in human MRC5 cells assessed as reduction in cell viability incubated for 72 hrs by MTS assay; format: cell-based; conditions: MRC5, 72 h
[4] = molecular target: Receptor-interacting serine/threonine-protein kinase 2 (Homo sapiens, UniProt O43353); experiment: Inhibition of RIPK2 (unknown origin) by [33P]-ATP filter binding kinase assay
Receptor-interacting serine/threonine-protein kinase 2, sequence (O43353 whole entry): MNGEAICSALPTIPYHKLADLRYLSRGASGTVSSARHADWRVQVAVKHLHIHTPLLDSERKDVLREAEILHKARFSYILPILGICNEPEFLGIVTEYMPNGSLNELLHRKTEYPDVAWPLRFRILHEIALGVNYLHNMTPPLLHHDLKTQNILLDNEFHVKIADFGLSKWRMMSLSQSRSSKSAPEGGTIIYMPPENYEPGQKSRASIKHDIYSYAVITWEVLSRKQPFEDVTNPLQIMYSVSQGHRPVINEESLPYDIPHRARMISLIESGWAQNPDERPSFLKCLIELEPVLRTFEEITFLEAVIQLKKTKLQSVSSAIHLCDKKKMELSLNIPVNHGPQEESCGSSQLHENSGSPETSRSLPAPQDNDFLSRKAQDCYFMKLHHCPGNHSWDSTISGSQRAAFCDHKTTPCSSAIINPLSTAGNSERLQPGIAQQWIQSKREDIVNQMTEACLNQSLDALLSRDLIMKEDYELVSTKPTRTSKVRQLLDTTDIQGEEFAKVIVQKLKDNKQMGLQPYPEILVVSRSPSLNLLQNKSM

[5] = Toxicity in zebrafish embryos assessed as induction of necrosis by measuring unaffected embryos level at 14 uM after 72 hrs (reference value: 100%); set-up: species or system Danio rerio; conditions: in vivo
[6] = molecular target: Serine/threonine-protein kinase pim-2 (Homo sapiens, UniProt Q9P1W9); experiment: Inhibition of PIM2 (unknown origin) by [33P]-ATP filter binding kinase assay
Serine/threonine-protein kinase pim-2, sequence (Q9P1W9 whole entry): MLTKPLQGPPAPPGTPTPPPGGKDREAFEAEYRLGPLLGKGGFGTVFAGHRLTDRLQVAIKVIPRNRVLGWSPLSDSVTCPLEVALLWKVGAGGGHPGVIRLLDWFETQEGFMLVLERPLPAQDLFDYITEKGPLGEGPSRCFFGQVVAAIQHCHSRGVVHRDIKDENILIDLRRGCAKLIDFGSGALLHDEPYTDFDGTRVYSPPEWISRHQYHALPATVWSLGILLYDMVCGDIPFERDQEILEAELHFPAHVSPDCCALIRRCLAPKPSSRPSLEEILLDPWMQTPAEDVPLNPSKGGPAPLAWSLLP

[7] = Intrinsic clearance in mouse liver microsomes at 3 uM measured up to 50 mins by LC-MS analysis; format: ADME, Microsome; conditions: read-out: CLH
MCF7 = experiment: Cytotoxicity in human MCF7 cells assessed as reduction in cell viability incubated for 72 hrs by SRB assay; conditions: MCF7, 72 h
[8] = molecular target: T2, Mitogen-activated protein kinase kinase kinase 9; experiment: Inhibition of MLK1 (unknown origin) assessed as residual enzyme activity at 1 uM by [33P]-ATP filter binding kinase assay relative to control
Target sequence in this assay (P80192 whole entry, looked up, the tested form may be a part): as the sequence (P80192 whole entry, looked up, the tested form may be a part) above

A673 = experiment: Cytotoxicity in human A673 cells assessed as reduction in cell viability incubated for 72 hrs by SRB assay; conditions: A673, 72 h
[9] = molecular target: T2, Mitogen-activated protein kinase kinase kinase 9; experiment: Inhibition of MLK1 (unknown origin) by [33P]-ATP filter binding kinase assay
Target sequence in this assay (P80192 whole entry, the tested form may be a part): as the sequence (P80192 whole entry, looked up, the tested form may be a part) above

[10] = molecular target: Mitogen-activated protein kinase 15 (Homo sapiens) (UniProt Q8TD08); experiment: Inhibition of ERK8 (unknown origin) assessed as residual enzyme activity at 50 uM by [33P]-ATP filter binding kinase assay relative to control
[11] = molecular target: Serine/threonine-protein kinase RIO1 (Homo sapiens, UniProt Q9BRS2); experiment: Binding affinity to wild-type human full length RIOK1 (M1 to K568 residues) expressed in bacterial expression system by active-site directed competition binding assay based Kinomescan method
[12] = molecular target: Serine/threonine-protein kinase SIK3 (Homo sapiens, UniProt Q9Y2K2); experiment: Inhibition of SIK3 (unknown origin) by [33P]-ATP filter binding kinase assay
Serine/threonine-protein kinase SIK3, sequence (Q9Y2K2 whole entry): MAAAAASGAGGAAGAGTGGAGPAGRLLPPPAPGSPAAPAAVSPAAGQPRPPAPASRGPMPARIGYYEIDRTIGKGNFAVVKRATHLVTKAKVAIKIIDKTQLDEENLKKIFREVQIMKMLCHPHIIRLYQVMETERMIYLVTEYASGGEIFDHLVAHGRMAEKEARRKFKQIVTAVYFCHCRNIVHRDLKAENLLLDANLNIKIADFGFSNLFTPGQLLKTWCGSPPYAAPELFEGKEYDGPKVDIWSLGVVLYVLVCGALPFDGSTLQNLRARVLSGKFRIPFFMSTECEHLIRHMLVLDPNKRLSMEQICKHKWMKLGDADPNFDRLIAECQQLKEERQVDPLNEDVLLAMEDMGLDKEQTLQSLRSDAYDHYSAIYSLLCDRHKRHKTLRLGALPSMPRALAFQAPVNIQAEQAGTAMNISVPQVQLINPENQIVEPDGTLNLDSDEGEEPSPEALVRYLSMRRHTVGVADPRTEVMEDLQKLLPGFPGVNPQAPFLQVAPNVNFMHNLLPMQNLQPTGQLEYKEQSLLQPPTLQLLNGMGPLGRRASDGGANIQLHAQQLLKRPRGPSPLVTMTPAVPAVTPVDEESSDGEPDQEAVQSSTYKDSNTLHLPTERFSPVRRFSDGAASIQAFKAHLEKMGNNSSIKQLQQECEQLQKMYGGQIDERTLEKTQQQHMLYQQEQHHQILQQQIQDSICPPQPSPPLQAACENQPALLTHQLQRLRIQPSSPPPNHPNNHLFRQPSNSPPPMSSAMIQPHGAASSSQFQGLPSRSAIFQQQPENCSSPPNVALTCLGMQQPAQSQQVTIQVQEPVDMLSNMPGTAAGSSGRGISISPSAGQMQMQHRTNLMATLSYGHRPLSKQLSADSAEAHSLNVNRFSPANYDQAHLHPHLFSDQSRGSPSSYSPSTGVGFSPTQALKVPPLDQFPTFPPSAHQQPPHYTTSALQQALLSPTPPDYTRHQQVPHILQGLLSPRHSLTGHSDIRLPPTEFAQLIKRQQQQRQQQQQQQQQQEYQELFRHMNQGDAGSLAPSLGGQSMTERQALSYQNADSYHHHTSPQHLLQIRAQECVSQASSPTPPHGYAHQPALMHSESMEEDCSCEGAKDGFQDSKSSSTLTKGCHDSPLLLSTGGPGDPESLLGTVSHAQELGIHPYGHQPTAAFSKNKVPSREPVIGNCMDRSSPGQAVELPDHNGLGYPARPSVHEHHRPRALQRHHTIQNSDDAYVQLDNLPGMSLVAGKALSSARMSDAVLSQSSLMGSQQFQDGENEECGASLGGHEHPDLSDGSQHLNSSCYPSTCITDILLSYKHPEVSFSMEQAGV

[13] = Toxicity in zebrafish embryos assessed as induction of general edema by measuring unaffected embryos level at 0.1 uM after 72 hrs (reference value: 100%); set-up: species or system Danio rerio; conditions: in vivo
[14] = molecular target: T3, Mitogen-activated protein kinase kinase kinase 7 (Homo sapiens, UniProt O43318); experiment: Inhibition of TAK1 (unknown origin) by [33P]-ATP filter binding kinase assay
T3 sequence (O43318 whole entry): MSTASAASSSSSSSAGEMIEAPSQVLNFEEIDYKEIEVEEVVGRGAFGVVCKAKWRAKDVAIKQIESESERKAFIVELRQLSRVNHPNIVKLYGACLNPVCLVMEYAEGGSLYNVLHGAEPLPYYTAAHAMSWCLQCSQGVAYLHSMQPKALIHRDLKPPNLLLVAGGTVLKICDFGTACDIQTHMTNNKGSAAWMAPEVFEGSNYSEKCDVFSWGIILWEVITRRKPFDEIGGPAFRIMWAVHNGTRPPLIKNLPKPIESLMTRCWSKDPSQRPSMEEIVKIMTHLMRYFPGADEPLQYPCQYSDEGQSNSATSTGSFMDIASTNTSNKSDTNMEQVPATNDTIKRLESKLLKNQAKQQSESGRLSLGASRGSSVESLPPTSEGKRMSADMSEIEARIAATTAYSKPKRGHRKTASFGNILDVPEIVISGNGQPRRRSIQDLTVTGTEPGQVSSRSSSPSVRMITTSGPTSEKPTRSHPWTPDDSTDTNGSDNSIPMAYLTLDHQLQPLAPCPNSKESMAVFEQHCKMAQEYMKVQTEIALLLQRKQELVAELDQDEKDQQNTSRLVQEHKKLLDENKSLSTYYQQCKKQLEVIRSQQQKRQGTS

[15] = molecular target: Sodium-dependent noradrenaline transporter (Homo sapiens, UniProt P23975); experiment: Inhibition of [3H]nisoxetine binding to human recombinant NET incubated for 120 mins by scintillation counting method; conditions: 2 h
Sodium-dependent noradrenaline transporter, sequence (P23975 whole entry): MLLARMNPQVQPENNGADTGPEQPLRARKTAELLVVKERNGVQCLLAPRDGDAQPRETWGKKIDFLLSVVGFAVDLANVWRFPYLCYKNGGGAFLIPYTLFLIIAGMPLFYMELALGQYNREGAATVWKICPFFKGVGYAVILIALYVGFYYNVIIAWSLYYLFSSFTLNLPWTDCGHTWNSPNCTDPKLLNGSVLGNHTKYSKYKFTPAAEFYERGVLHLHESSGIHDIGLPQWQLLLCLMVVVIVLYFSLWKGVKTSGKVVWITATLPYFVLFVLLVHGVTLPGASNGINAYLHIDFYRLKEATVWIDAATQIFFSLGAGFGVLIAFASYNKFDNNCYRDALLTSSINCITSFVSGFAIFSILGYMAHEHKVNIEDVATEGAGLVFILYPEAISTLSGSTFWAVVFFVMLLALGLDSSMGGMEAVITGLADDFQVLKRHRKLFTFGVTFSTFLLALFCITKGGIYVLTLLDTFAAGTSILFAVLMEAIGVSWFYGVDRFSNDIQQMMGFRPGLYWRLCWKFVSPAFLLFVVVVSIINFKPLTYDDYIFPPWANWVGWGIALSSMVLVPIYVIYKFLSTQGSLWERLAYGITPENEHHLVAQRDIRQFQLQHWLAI

SK-BR-3 = experiment: Cytotoxicity in human SK-BR-3 cells assessed as reduction in cell viability incubated for 72 hrs by MTS assay; format: functional, cell-based; conditions: SK-BR-3, 72 h
[16] = molecular target: T4, Mitogen-activated protein kinase 15 (Homo sapiens, UniProt Q8TD08); experiment: Inhibition of ERK8 (unknown origin) by [33P]-ATP filter binding kinase assay
T4 sequence (Q8TD08 whole entry): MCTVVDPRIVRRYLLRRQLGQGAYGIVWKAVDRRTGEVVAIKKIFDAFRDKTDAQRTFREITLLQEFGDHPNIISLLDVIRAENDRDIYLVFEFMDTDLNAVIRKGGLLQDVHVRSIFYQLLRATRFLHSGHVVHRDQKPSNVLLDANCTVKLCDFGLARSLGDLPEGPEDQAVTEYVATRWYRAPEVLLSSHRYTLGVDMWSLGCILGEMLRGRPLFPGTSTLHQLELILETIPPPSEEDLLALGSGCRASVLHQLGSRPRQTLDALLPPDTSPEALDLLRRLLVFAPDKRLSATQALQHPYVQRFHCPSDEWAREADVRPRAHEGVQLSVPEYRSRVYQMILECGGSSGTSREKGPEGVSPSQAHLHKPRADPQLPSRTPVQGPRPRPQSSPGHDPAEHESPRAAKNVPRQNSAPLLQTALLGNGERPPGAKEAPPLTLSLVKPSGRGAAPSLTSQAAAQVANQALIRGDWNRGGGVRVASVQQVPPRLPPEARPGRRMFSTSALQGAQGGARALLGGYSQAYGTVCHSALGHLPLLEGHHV

[17] = Toxicity in zebrafish embryos assessed as induction of heart edema by measuring unaffected embryos level at 1.4 uM after 72 hrs (reference value: 100%); format: tissue-based, Danio rerio; conditions: in vivo

| IC50 [3] | IC50 [4] | IC50 [6] | IC50 [9] | IC50 [12] | IC50 [14] | Compound | Activity [1] | IC50 (HT-29) | IC50 (MOLT-4) | IC50 (MRC5) | IC50 (SK-BR-3) | IC50 [16] | further results |
| --- | --- | --- | --- | --- | --- | --- | --- | --- | --- | --- | --- | --- | --- |
| > 10 µM | > 10 µM | > 10 µM | > 10 µM | > 10 µM | > 10 µM | COc1cc(Br)cc2[nH]cc(-c3oc(-c4ccc[nH]4)nc3I)c12 | – | > 10 µM | > 10 µM | > 10 µM | > 10 µM | > 10 µM | – |
| 3.7 µM | > 10 µM | 22 µM | 0.9 µM | > 10 µM | 1 µM | COc1cc(Br)cc2[nH]cc(-c3cnc(-c4ccc[nH]4)o3)c12 | 29% | > 10 µM | > 10 µM | > 10 µM | > 10 µM | 46 µM | – |
| > 10 µM | > 10 µM | > 10 µM | > 10 µM | > 10 µM | > 10 µM | COc1cc(Br)cc2[nH]cc(-c3cnc(-c4ccc(Br)[nH]4)o3)c12 | – | > 10 µM | > 10 µM | > 10 µM | > 10 µM | > 10 µM | – |

| Compound | IC50 [3] | IC50 [4] | IC50 [6] | IC50 [9] | IC50 [12] | IC50 [14] | Activity [1] | IC50 (HT-29) | IC50 (MOLT-4) | IC50 (MRC5) | IC50 (SK-BR-3) | IC50 [16] | further results |
| --- | --- | --- | --- | --- | --- | --- | --- | --- | --- | --- | --- | --- | --- |
| COc1cc2c(-c3cnc(-c4ccc[nH]4)o3)c[nH]c2cc1Br | 1.8 µM | 1.1 µM | 11 µM | 0.6 µM | 1.2 µM | 1.2 µM | 7% | 7.1 µM | 9.9 µM | 7.1 µM | > 10 µM | 1 µM | Activity (Aurora kinase B): 50%; Activity [2]: 59%; Activity [5]: 0%; microsomal CLint at 3 µM [7]: 47 µL/min/mg; IC50 (MCF7): 0.77 µM; Activity [8]: 26%; IC50 (A673): 2.2 µM; Activity [10]: 9%; Kd [11]: 2.9 µM; Activity [13]: 100%; inhibition (INH) [15]: Active; Activity [17]: 100% |
